Data: patent US10231954B2, “Neurodegenerative therapies” (LYTIX BIOPHARMA AS, priority 2014, dated 2019)

Tests used:
Type in all cases: biochemical
MAPKAP-K2 = MAPKAP-K2 (Homo sapiens, UniProt P49137); assay: Kinase profiling MAPKAP-K2; conditions: 100 micromolar inhibitor concentration, 100 is no change; for remaining activity at 100 µM: read-out: residual kinase activity, MAPKAP-K2
From the text: (§1) Any value less that 25 is considered to be highly significant inhibition.

PHK = assay: Kinase profiling PHK; conditions: 100 micromolar inhibitor concentration; 100 is no change
From the text: as §1

CHK1 = target: T1, CHK1 (Homo sapiens, UniProt O14757); assay: Kinase profiling CHK1; conditions: 100 micromolar inhibitor concentration, 100 is no change; for remaining activity at 100 µM: read-out: residual kinase activity, CHK1
T1 sequence (O14757 1-476): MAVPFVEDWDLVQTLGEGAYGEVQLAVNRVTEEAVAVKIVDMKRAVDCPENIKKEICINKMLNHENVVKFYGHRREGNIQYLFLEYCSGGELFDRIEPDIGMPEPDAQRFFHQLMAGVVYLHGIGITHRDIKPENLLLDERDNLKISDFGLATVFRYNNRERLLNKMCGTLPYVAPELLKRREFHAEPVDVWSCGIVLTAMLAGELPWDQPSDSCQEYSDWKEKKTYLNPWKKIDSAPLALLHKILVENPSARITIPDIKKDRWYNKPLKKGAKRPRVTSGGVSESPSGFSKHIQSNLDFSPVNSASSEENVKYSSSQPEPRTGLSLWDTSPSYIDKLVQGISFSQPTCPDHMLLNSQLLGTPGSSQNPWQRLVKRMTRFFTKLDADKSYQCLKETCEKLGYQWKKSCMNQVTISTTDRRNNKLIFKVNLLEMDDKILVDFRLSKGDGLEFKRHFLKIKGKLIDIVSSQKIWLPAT
From the text: as §1

Aurora A = target: T2, Aurora A (Homo sapiens, UniProt O14965); assay: Kinase profiling Aurora A; conditions: 100 micromolar inhibitor concentration, 100 is no change; for remaining activity at 100 µM: read-out: residual kinase activity, Aurora A
T2 sequence (O14965 1-403): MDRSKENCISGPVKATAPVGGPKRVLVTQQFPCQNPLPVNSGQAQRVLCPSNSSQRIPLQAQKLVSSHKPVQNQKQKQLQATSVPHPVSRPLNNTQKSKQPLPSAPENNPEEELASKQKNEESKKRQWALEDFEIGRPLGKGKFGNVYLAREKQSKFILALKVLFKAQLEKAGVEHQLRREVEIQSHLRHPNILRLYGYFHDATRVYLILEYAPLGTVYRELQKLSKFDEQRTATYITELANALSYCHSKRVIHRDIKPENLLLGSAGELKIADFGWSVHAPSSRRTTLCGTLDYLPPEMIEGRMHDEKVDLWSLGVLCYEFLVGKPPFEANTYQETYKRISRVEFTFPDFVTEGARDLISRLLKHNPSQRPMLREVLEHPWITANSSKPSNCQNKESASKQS
From the text: as §1

TTBK2 = TTBK2 (Homo sapiens, UniProt Q6IQ55); assay: Kinase profiling TTBK2; conditions: 100 micromolar inhibitor concentration, 100 is no change; for remaining activity at 100 µM: read-out: residual kinase activity, TTBK2
From the text: as §1

PIM2 = PIM2 (Homo sapiens, UniProt Q9P1W9); assay: Kinase profiling PIM2; conditions: 100 micromolar inhibitor concentration, 100 is no change; for remaining activity at 100 µM: read-out: residual kinase activity, PIM2
From the text: as §1

MST3 = MST3 (Homo sapiens, UniProt Q9Y6E0); assay: Kinase profiling MST3; conditions: 100 micromolar inhibitor concentration, 100 is no change; for remaining activity at 100 µM: read-out: residual kinase activity, MST3
From the text: as §1

MPSK1 = MPSK1 (Homo sapiens, UniProt O75716); assay: Kinase profiling MPSK1; conditions: 100 micromolar inhibitor concentration, 100 is no change; for remaining activity at 100 µM: read-out: residual kinase activity, MPSK1
From the text: as §1

EPH-B1 = target: T3, EPH-B1 (Homo sapiens, UniProt P54762); assay: Kinase profiling EPH-B1; conditions: 100 micromolar inhibitor concentration, 100 is no change; for remaining activity at 100 µM: read-out: residual kinase activity, EPH-B1
T3 sequence (P54762 18-984): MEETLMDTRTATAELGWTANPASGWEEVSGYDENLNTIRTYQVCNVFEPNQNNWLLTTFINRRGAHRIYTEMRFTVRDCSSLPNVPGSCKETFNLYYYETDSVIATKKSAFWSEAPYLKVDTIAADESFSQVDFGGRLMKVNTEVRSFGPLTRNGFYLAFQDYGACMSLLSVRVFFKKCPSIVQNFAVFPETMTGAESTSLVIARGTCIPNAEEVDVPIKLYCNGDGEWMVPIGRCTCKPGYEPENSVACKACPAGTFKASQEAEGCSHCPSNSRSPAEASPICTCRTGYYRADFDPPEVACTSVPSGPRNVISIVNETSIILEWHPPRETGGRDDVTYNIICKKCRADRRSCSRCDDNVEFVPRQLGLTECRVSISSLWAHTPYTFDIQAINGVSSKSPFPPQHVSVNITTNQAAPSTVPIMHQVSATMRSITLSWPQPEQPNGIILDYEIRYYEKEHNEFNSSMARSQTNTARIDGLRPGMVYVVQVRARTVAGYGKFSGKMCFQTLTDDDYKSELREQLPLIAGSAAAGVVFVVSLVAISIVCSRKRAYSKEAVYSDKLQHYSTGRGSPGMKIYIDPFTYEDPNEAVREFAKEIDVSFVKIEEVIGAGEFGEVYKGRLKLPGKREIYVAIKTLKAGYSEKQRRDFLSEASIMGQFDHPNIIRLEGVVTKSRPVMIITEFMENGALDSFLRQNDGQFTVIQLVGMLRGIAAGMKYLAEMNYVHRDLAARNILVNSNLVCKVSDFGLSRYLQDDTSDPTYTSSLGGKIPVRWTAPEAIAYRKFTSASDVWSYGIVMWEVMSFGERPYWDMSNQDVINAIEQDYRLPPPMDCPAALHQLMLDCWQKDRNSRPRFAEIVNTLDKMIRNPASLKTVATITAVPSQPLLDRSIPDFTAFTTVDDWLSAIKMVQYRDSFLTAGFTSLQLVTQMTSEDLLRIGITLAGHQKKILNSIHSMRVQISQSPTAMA
From the text: as §1

IR = IR (Homo sapiens, UniProt P06213); assay: Kinase profiling IR; conditions: 100 micromolar inhibitor concentration, 100 is no change; for remaining activity at 100 µM: read-out: residual kinase activity, IR
From the text: as §1

IRR = IRR (Homo sapiens, UniProt P14616); assay: Kinase profiling IRR; conditions: 100 micromolar inhibitor concentration, 100 is no change; for remaining activity at 100 µM: read-out: residual kinase activity, IRR
From the text: as §1

IR, sequence (P06213 28-1382): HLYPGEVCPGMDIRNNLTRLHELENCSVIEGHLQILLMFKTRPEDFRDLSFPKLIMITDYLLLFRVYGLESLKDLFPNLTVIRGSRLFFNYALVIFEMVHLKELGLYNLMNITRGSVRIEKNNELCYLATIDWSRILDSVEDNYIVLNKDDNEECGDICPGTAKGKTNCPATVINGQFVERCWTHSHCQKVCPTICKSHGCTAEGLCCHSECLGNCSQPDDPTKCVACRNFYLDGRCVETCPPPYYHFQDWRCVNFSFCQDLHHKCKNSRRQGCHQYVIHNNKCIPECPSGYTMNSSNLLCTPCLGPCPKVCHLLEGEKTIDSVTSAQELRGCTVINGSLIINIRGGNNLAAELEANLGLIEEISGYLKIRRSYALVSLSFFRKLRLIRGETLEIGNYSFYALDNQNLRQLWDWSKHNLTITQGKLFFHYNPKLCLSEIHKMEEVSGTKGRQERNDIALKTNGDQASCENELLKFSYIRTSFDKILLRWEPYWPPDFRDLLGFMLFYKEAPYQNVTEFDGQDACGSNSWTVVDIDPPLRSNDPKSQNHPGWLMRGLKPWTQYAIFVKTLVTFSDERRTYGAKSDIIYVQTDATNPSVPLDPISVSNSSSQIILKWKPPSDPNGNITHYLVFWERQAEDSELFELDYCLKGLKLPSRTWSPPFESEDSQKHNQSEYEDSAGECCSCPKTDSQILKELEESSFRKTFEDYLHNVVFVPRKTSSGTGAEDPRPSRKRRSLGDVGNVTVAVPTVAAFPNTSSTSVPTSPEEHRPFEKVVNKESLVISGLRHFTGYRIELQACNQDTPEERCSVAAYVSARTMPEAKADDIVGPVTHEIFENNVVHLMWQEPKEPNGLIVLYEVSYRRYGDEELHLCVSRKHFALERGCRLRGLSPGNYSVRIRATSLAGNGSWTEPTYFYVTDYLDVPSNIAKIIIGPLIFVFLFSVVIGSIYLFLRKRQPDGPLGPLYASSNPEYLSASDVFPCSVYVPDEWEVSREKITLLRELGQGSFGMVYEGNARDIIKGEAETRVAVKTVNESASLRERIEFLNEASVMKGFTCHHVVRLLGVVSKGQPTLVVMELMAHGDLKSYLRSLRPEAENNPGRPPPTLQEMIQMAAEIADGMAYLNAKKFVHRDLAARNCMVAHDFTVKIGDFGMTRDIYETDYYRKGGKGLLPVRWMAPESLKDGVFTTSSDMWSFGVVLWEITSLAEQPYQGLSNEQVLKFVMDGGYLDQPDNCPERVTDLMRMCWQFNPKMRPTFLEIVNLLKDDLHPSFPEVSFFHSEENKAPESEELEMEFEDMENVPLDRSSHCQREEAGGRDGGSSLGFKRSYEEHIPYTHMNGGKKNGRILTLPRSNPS
MPSK1, sequence (O75716 whole entry, species assumed): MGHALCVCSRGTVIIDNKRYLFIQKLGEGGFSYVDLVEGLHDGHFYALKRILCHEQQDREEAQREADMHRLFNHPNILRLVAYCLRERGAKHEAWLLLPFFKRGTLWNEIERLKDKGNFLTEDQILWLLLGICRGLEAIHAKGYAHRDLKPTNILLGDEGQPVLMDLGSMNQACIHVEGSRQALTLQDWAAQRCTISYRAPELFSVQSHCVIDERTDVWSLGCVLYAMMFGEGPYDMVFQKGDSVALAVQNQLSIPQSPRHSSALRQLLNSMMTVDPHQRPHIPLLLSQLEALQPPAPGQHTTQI
TTBK2, sequence (Q6IQ55 whole entry, species assumed): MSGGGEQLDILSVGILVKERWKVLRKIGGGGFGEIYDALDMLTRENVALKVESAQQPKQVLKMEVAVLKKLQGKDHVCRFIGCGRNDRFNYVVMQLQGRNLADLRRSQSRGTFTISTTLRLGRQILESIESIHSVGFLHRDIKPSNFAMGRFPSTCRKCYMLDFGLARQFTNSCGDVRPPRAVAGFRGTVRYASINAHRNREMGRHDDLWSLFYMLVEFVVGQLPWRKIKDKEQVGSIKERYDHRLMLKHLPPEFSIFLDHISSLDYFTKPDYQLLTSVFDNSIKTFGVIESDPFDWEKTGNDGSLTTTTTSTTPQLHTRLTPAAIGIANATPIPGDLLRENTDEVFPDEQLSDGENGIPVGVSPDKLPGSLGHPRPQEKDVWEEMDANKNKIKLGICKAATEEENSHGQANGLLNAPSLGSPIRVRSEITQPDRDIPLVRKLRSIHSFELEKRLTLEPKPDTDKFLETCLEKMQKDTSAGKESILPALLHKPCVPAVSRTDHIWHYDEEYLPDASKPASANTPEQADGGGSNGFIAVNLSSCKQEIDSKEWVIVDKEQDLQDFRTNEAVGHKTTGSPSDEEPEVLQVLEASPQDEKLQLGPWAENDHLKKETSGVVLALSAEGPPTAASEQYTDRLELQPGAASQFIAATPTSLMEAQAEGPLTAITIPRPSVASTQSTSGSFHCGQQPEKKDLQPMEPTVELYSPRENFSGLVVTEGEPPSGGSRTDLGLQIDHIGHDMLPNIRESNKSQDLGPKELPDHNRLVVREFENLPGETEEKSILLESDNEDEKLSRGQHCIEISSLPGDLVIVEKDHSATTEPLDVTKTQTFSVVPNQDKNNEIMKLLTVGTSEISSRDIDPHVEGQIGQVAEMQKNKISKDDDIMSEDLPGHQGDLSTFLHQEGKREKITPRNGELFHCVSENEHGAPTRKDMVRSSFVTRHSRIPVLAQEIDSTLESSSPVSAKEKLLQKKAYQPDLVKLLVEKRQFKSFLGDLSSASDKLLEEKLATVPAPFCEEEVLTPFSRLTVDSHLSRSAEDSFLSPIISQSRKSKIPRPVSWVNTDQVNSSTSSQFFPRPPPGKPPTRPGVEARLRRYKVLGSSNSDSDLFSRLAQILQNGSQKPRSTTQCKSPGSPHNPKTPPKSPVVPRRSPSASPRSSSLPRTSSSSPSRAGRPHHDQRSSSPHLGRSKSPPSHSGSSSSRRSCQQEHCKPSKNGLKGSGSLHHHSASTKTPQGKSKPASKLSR
MAPKAP-K2, sequence (P49137 whole entry, species assumed): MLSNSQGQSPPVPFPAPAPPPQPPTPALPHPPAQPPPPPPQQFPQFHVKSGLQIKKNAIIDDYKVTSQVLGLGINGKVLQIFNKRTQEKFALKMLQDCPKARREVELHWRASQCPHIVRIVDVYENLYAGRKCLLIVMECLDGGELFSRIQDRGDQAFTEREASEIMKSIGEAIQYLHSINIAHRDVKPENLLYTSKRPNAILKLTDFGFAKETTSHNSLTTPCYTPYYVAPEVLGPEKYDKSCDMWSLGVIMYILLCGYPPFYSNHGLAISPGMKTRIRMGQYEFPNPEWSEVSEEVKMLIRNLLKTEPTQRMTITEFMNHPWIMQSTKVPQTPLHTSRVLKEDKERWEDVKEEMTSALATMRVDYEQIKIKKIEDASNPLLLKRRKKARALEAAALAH
PIM2, sequence (Q9P1W9 whole entry, species assumed): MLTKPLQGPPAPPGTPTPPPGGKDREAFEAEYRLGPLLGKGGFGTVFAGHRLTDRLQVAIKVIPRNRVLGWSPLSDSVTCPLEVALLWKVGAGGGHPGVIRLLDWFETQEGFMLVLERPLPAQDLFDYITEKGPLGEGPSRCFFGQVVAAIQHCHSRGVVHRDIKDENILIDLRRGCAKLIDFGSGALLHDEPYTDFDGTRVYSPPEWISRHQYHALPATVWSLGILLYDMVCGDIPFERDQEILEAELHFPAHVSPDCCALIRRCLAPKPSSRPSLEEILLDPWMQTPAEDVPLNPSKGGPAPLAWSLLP
MST3, sequence (Q9Y6E0 whole entry, species assumed): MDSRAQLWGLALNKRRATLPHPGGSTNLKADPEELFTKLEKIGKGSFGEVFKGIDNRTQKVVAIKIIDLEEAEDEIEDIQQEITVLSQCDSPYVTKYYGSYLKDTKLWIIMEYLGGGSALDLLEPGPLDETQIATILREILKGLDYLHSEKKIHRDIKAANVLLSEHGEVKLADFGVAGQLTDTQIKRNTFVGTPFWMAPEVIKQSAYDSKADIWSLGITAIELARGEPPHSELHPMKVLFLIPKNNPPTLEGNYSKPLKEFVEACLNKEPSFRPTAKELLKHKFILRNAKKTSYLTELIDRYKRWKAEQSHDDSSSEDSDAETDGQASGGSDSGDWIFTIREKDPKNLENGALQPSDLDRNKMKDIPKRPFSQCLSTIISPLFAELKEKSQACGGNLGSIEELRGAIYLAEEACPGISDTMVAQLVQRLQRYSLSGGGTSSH

Row | SMILES | remaining activity at 100 µM (MAPKAP-K2) | residual kinase activity, PHK (PHK) | remaining activity at 100 µM (CHK1) | remaining activity at 100 µM (Aurora A) | remaining activity at 100 µM (TTBK2) | remaining activity at 100 µM (PIM2) | remaining activity at 100 µM (MST3) | remaining activity at 100 µM (MPSK1) | remaining activity at 100 µM (EPH-B1) | remaining activity at 100 µM (IR) | remaining activity at 100 µM (IRR) | also measured
1 | CC(=O)Nc1nc2ccc(C#N)cc2s1 [Compound 01-94] | 65% | 63 | 96% | 61% | 78% | 73% | 71% | 94% | 94% | 81% | 42% | 
2 | O=C(Nc1nc2cc(O)ccc2s1)c1ccncc1 [Compound 03-11] |  | 63 |  |  |  |  |  |  |  |  |  | residual kinase activity, MAPKAP-K2 (MAPKAP-K2): 82; residual kinase activity, CHK1 (CHK1): 78; residual kinase activity, Aurora A (Aurora A): 106; residual kinase activity, TTBK2 (TTBK2): 99; residual kinase activity, PIM2 (PIM2): 89; residual kinase activity, MST3 (MST3): 92; residual kinase activity, MPSK1 (MPSK1): 73; residual kinase activity, EPH-B1 (EPH-B1): 99; residual kinase activity, IR (IR): 106; residual kinase activity, IRR (IRR): 86
3 | COc1ccc2sc(NC(C)=O)nc2c1 [Compound 03-21] | 108% | 111 | 110% | 103% | 84% | 48% | 91% | 97% | 99% | 109% | 47% | 
4 | CC(=O)Nc1nc2cc(C(F)(F)F)ccc2s1 [Compound 03-73] | 114% | 91 | 110% | 96% | 91% | 63% | 89% | 97% | 114% | 102% | 61% | 
5 | CC(=O)Nc1nc2cc(F)ccc2s1 [Compound 03-77] | 106% | 89 | 103% | 100% | 93% | 62% | 87% | 86% | 103% | 87% | 57% | 
6 | CC(=O)Nc1nc2ccc(C(F)(F)F)cc2s1 [Compound 01-90] | 90% | 52 | 97% | 81% | 98% | 94% | 85% | 105% | 91% | 84% | 49% | 
7 | O=C(Nc1nc2ccc(O)cc2s1)c1cccnc1 [Compound 08-44] |  | 43 |  |  |  |  |  |  |  |  |  | residual kinase activity, MAPKAP-K2 (MAPKAP-K2): 56; residual kinase activity, CHK1 (CHK1): 78; residual kinase activity, Aurora A (Aurora A): 99; residual kinase activity, TTBK2 (TTBK2): 51; residual kinase activity, PIM2 (PIM2): 76; residual kinase activity, MST3 (MST3): 76; residual kinase activity, MPSK1 (MPSK1): 81; residual kinase activity, EPH-B1 (EPH-B1): 93; residual kinase activity, IR (IR): 35; residual kinase activity, IRR (IRR): 45
